Test results as given in patent US7176281B2 (priority 2003, dated 2007).
Where a SMILES comes first, the peptide text is derived from it.

Target: T1, Group IIA purified human synovial sPLA2 (Homo sapiens, UniProt P14555)
T1 construct: purchased Cayman, USA
T1 sequence (P14555 21-144): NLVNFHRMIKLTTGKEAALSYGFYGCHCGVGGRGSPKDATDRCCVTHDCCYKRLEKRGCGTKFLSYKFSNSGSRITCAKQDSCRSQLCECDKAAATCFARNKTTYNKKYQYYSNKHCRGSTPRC
Test: In vitro inhibition of purified human synovial sPLA2, 3H-labelled E. coli membranes
Assay type: biochemical
Details: 3H-labelled E. coli membranes as substrate

**Q.** Which IC50 does the source give for `CC[C@H](C)[C@H](NC(=O)[C@H](CC(=O)O)NC(=O)[C@@H](N)C(C)C)C(=O)N[C@@H](Cc1cnc[nH]1)C(=O)N[C@H](C(=O)N[C@@H](Cc1c[nH]c2ccccc12)C(=O)N[C@@H](CO)C(=O)NCC(=O)N[C@H](C(=O)O)C(C)C)C(C)C` [D65S-PIP (59–67)] (H-VDIHVWSGV-OH) here?
**A.** 5.25 µM

**Q.** Which IC50 does the source give for `CC[C@H](C)[C@H](NC(=O)[C@H](CC(=O)O)NC(=O)[C@@H](NC(=O)[C@@H](N)CCCNC(=N)N)C(C)C)C(=O)N[C@@H](Cc1c[nH]cn1)C(=O)N[C@H](C(=O)N[C@@H](Cc1c[nH]c2ccccc12)C(=O)N[C@@H](CC(=O)O)C(=O)NCC(=O)N[C@H](C(=O)O)C(C)C)C(C)C` [PIP (58–67)] (H-RVDIHVWDGV-OH; N-terminus and C-terminus assumed) here?
**A.** 3.67 µM

**Q.** With `CC[C@H](C)[C@H](NC(=O)[C@@H](N)CC(=O)O)C(=O)N[C@@H](Cc1c[nH]cn1)C(=O)N[C@H](C(=O)N[C@@H](Cc1c[nH]c2ccccc12)C(=O)N[C@@H](CC(=O)O)C(=O)NCC(=O)N[C@H](C(=O)O)C(C)C)C(C)C` [PIP (60–67)] (H-DIHVWDGV-OH; N-terminus and C-terminus assumed) as the molecule, how does the IC50 read?
**A.** 5.75 µM

**Q.** Which IC50 does the source give for `CC[C@H](C)[C@H](NC(=O)[C@H](CC(=O)O)NC(=O)[C@@H](N)C(C)C)C(=O)N[C@@H](Cc1cnc[nH]1)C(=O)N[C@H](C(=O)N[C@@H](Cc1c[nH]c2ccccc12)C(=O)N[C@@H](CCC(=O)O)C(=O)NCC(=O)N[C@H](C(=O)O)C(C)C)C(C)C` [D65E-PIP (59–67)] (H-VDIHVWEGV-OH) here?
**A.** 4.95 µM

**Q.** With `CC[C@H](C)[C@H](NC(=O)[C@H](CC(=O)O)NC(=O)[C@@H](N)C(C)C)C(=O)N[C@@H](Cc1cnc[nH]1)C(=O)N[C@H](C(=O)N[C@@H](Cc1c[nH]c2ccccc12)C(=O)N[C@@H](C)C(=O)NCC(=O)N[C@H](C(=O)O)C(C)C)C(C)C` [D65A-PIP (59–67)] (H-VDIHVWAGV-OH) as the molecule, how does the IC50 read?
**A.** 5.45 µM

**Q.** For `CC[C@H](C)[C@H](NC(=O)[C@H](CCC(=O)O)NC(=O)[C@@H](N)C(C)C)C(=O)N[C@@H](Cc1c[nH]cn1)C(=O)N[C@H](C(=O)N[C@@H](Cc1c[nH]c2ccccc12)C(=O)N[C@@H](CCC(=O)O)C(=O)NCC(=O)N[C@H](C(=O)O)C(C)C)C(C)C` [D60, 65E-PIP (59–67)] (H-VEIHVWEGV-OH; N-terminus and C-terminus assumed), which IC50 is on record?
**A.** 4.2 µM

Same assay, conditions: fixed peptide concentration 5 μM

**Q.** For DIHVWDG [PIP (60–66)], which “Mean % Inhibition” value is on record?
**A.** n.s.

**Q.** `CC[C@H](C)[C@H](NC(=O)[C@H](CC(=O)O)NC(=O)[C@@H](NC(=O)[C@@H](N)CCCNC(=N)N)C(C)C)C(=O)N[C@@H](Cc1c[nH]cn1)C(=O)N[C@H](C(=O)N[C@@H](Cc1c[nH]c2ccccc12)C(=O)N[C@@H](CC(=O)O)C(=O)NCC(=O)N[C@H](C(=O)O)C(C)C)C(C)C` [PIP (58–67)] (H-RVDIHVWDGV-OH; N-terminus and C-terminus assumed) was tested. Which inhibition at 5 µM did it give?
**A.** 59.5%

**Q.** For `CC[C@H](C)[C@H](NC(=O)[C@@H](N)CC(=O)O)C(=O)N[C@@H](Cc1c[nH]cn1)C(=O)N[C@H](C(=O)N[C@@H](Cc1c[nH]c2ccccc12)C(=O)N[C@@H](CC(=O)O)C(=O)NCC(=O)N[C@H](C(=O)O)C(C)C)C(C)C` [PIP (60–67)] (H-DIHVWDGV-OH; N-terminus and C-terminus assumed), which inhibition at 5 µM is on record?
**A.** 45.9%

**Q.** Which “Mean % Inhibition” value does the source give for IHVWDGV [PIP (61–67)] here?
**A.** n.s.

**Q.** With LGRVDIHVWDGV [PIP (56–67)] as the molecule, how does the “Mean % Inhibition” value read?
**A.** 34.21%

**Q.** With GRVDIHVWDGV [PIP (57–67)] as the molecule, how does the “Mean % Inhibition” value read?
**A.** 14.22%

**Q.** HVWDG [PIP (62–66)] was tested. Which “Mean % Inhibition” value did it give?
**A.** n.s.

**Q.** With IHVWDG [PIP (61–66)] as the molecule, how does the “Mean % Inhibition” value read?
**A.** n.s.

Same assay, conditions: purified human synovial sPLA2 (Cayman)

**Q.** Which IC50 does the source give for `CC[C@H](C)[C@H](NC(=O)[C@H](CC(=O)O)NC(=O)[C@@H](N)C(C)C)C(=O)N[C@@H](Cc1cnc[nH]1)C(=O)N[C@H](C(=O)N[C@@H](Cc1c[nH]c2ccccc12)C(=O)N[C@@H](CC(=O)O)C(=O)NCC(=O)N[C@H](C(=O)N[C@H](C(=O)N[C@@H](CC(=O)O)C(=O)N[C@H](C(=O)N[C@@H](Cc1cnc[nH]1)C(=O)N[C@H](C(=O)N[C@@H](Cc1c[nH]c2ccccc12)C(=O)N[C@@H](CC(=O)O)C(=O)NCC(=O)N[C@H](C(=O)O)C(C)C)C(C)C)[C@@H](C)CC)C(C)C)C(C)C)C(C)C` [PIP (59–67) dimer, VDIHVWDGV VDIHVWDGV] (H-VDIHVWDGVVDIHVWDGV-OH) here?
**A.** 1.19 µM

**Q.** `CC[C@H](C)[C@H](NC(=O)[C@H](CC(=O)O)NC(=O)[C@@H](N)C(C)C)C(=O)N[C@@H](Cc1c[nH]cn1)C(=O)N[C@H](C(=O)N[C@@H](Cc1c[nH]c2ccccc12)C(=O)N[C@@H](CC(=O)O)C(=O)NCC(=O)N[C@H](C(=O)O)C(C)C)C(C)C` [PIP (59–67)] (H-VDIHVWDGV-OH; N-terminus and C-terminus assumed) was tested. Which IC50 did it give?
**A.** 3.8 µM
